Article PMC10287695, “Non-covalent inhibitors of thioredoxin glutathione reductase with schistosomicidal activity in vivo” (Nature Communications, 2023)
“And” between values parts separate entries of the source, which are not always exact repeats. Equal values may be shown once. Read-outs that look alike come from different tables or passages of the source. Marks after values point to notes of the source that are not given here.

Key:
[1] = Cytotoxicity in mammalian cells (Cell Titer Glo); assay type: cell-based; conditions: African green monkey, Vero cells; for viability at 24 h, 5 µM: Conc. 5 µM; for viability at 24 h, 10 µM: Conc. 10 µM; for viability at 24 h, 25 µM: Conc. 25 µM; for viability at 24 h, 35 µM: Conc. 35 µM; for viability at 24 h, 50 µM: Conc. 50 µM
Procedure: Following overnight incubation, formulated DMSO-compound stock solutions were diluted with DMEM at <1% DMSO final concentrations. […] Vero cells treated similarly with different concentrations of PZQ, MZM and AF (Cayman Chemicals) were used as positive controls.

PfTrxR = target: T1, PfTrxR (Plasmodium falciparum, UniProt Q25861); test: P. falciparum TrxR enzyme inhibition; assay type: biochemical
T1 construct: 6-His (N); made in house; host or cells: E. coli BL21 (DE3)
T1 sequence (Q25861 1-541): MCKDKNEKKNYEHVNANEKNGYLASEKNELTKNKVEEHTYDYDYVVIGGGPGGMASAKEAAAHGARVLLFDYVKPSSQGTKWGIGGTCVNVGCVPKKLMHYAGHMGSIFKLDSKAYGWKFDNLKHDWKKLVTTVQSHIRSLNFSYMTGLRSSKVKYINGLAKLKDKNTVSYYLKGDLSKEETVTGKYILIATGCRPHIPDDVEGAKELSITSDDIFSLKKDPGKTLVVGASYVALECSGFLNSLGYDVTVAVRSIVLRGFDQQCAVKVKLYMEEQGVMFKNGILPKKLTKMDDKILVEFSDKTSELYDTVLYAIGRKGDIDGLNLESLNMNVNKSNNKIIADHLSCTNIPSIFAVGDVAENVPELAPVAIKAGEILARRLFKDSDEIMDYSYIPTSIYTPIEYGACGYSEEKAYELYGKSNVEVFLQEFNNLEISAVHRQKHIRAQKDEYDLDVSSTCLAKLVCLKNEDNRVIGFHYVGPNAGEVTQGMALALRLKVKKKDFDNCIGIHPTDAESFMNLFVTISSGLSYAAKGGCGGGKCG
Procedure: Recombinant TGR, human TrxR1, B. malayi (Bm)TrxR and human GR proteins were expressed and purified as described[20],[69],[79]. The codon optimized sequence for P. falciparum (PfTrxR, https://www.ncbi.nlm.nih.gov/protein/CAA60574.1/) with an N-terminal 6-His tag was synthesized and inserted into pET15b (GenScript) and expressed in BL21 (DE3) cells and purified as described for human GR[20]. TGR and TrxR enzyme inhibition assays were performed in triplicate at 25 °C as described[20] in 0.1 M potassium phosphate (pH 7.4), 10 mM EDTA, 100 µM NADPH and 0.01% Tween-20. TGR, human TrxR1 and BmTrxR (all at 4 nM) and PfTrxR (50 nM) were preincubated with the compounds for 15 min. The reaction was started with addition of an equal volume of DTNB (6 mM) and NADPH (100 µM) and the increase in A412 during the first 3 min was recorded. […] The reaction was preincubated for 15 min. Activity was initiated with the addition of 1 mM GSSG and 100 μM NADPH and initial rates of NADPH oxidation were monitored at 340 nm. The reactions were done in triplicate. The IC50 was calculated in GraphPad Prism.

[2] = test system: S. mansoni juvenile worms (21 days); test: Schistosomicidal activity ex vivo, juvenile worms (21 days); assay type: cell-based; conditions: for viability at 5 µM / viability at 15 µM / viability at 30 µM: Schistosoma mansoni, 23 day S. mansoni worms, 48 HR; for viability at 5 µM: Conc. 5 µM; for viability at 15 µM: Conc. 15 µM; for viability at 30 µM: Conc. 30 µM; for LD50 ex vivo S. mansoni 21 days: juvenile worms, 48 h exposure
Procedure: Three-week old, female Swiss-Webster mice obtained from the Charles River were housed in the Comparative Research Center of Rush University Medical Center. Mice were infected by percutaneous tail exposure to about 200 S. mansoni or 50 S. japonicum cercaria for adult worms and about 1000 cercaria for juvenile S. mansoni worms through natural transdermal penetration of the cercariae for 1 h[81].
DMSO formulated compounds were diluted with phenol red free M199 medium or RPMI medium for NTS or juvenile and adult worms, respectively, at <1% DMSO final concentrations. NTS, juvenile and adult worms from overnight cultures were tested against compounds in triplicate. Controls were treated with DMSO alone or 5 µM AF as a positive control in appropriate medium. […] Schistosome viabilities in the presence of the compounds were assessed using this formula: % Viability = Averages of Test / Averages of DMSO Control x 100.

TGR = target: T2, TGR (Schistosoma mansoni, UniProt Q962Y6); test: Reversibility by jump dilution; assay type: biochemical; conditions: for % Inhibition (ID list), D0 / % Activity (ID list), D0: D0: diluted 1:100, activity determined immediately; for % Inhibition (ID list), D0 / % Inhibition (ID list), D60 / % Activity (ID list) / % Inhibition (ID list) / % Activity (ID list), D0 / % Activity (ID list), D60: list for plotting; for % Inhibition (ID list), D60 / % Activity (ID list), D60: D60: diluted 1:100, activity determined after 60 min; for Inhibitor (rate), 0 min / % Activity, 0 min: [0, D0]: 15 min preincubation inhibitor + TGR + NADPH, diluted 1:100, then activity determined immediately; for Inhibitor (rate), 0 min / Inhibitor (rate), 60 min / Inhibitor (rate), -15: raw rate; for % Activity, 0 min / % Activity, 60 min / % Activity, -15: relative to DMSO; for Inhibitor (rate), 60 min / % Activity, 60 min: [60, D60]: 15 min preincubation inhibitor + TGR + NADPH, diluted 1:100, then activity determined after 60 min; for Inhibitor (rate), -15 / % Activity, -15: [-15]: 15 min preincubation inhibitor + TGR + NADPH, then activity determined, replicates; for % Activity (ID list) / % Inhibition (ID list): before dilution (-15)
T2 construct: made in house
T2 sequence (Q962Y6 1-598): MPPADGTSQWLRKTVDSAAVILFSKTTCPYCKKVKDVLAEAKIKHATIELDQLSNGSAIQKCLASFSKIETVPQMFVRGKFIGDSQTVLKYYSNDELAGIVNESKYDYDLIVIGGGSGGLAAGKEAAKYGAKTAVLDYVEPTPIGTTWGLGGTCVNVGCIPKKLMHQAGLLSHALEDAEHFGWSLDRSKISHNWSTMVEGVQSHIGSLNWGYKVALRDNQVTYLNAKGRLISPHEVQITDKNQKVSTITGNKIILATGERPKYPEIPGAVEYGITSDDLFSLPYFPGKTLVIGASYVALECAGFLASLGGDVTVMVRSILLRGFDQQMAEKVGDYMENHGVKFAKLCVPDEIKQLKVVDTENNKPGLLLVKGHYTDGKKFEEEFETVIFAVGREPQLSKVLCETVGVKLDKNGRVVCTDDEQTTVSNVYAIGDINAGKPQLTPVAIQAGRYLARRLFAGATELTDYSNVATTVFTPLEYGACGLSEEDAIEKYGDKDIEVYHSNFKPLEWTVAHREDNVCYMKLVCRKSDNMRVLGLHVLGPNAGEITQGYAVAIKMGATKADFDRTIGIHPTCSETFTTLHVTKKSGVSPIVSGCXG
Procedure: A reaction of 370 nM TGR, 100 µM NADPH, and 250 µM inhibitor was incubated for 15 min at room temperature. A 100x dilution of the reaction was made and the activity was determined immediately and after 60 min.

| SMILES | viability at 24 h, 5 µM [1] [%] | viability at 24 h, 10 µM [1] [%] | viability at 24 h, 25 µM [1] [%] | viability at 24 h, 35 µM [1] [%] | viability at 24 h, 50 µM [1] [%] | viability at 5 µM [2] [%] | viability at 15 µM [2] [%] | viability at 30 µM [2] [%] | LD50 ex vivo S. mansoni 21 days [2] | % Inhibition (ID list), D0 (TGR) | % Inhibition (ID list), D60 (TGR) | Inhibitor (rate), 0 min (TGR) | % Activity, 0 min (TGR) | Inhibitor (rate), 60 min (TGR) | % Activity, 60 min (TGR) | Inhibitor (rate), -15 (TGR) | % Activity, -15 (TGR) | % Activity (ID list) (TGR) | % Inhibition (ID list) (TGR) | inhibition at 10 µM (PfTrxR) [%] | further results |
| --- | --- | --- | --- | --- | --- | --- | --- | --- | --- | --- | --- | --- | --- | --- | --- | --- | --- | --- | --- | --- | --- |
| Cc1oc(-c2ccc3c(c2)OCO3)nc1CN[C@@H]1C[C@@H]2C[C@H]([C@H]1C)C2(C)C [Compound 1] | 94.7 | 94.6 | 94.3 | 83.3 | 72.5 | 69 | 54.9 | 46.4 | 26.3 ± 0.48 µM | -3.0% and -6.3% and -11.0% | -11.2% and -8.3% and -14.2% | 0.04476 and 0.04528 and 0.04727 | 96.9881% and 96.3404% and 109.043% | 0.04331 and 0.04649 and 0.04721 | 100.185% and 104.308% and 101.157% | 0.02911 and 0.02756 and 0.02942 | 84.4748% and 76.3012% and 82.9433% | 84.5% and 76.3% and 82.9% | 15.5% and 23.7% and 17.1% |  | PfTrxR % inhibition at 50 µM (PfTrxR; 50 µM, the highest concentration tested): n.i.; inhibition at 10 µM (PfTrxR; PfTrxR, 10 µM compound, mean of 3 replicates, read-out: % inhibition): -2.06%; inhibition at 25 µM (PfTrxR; PfTrxR, 25 µM compound, mean of 3 replicates, read-out: % inhibition): -2.16%; inhibition at 50 µM (PfTrxR; PfTrxR, 50 µM compound, mean of 3 replicates, read-out: % inhibition): -1.29% |
| Cc1oc(C2CCCCC2)nc1C(=O)N[C@@H]1C[C@@H]2C[C@H]([C@H]1C)C2(C)C [Compound 7] | 92 | 91.8 | 89.5 | 85.8 | 83.6 | 77.6 | 63.5 | 58.7 | >30^a µM | 1.5% and -2.6% | -0.17% and 1.6% and 3.9% | 0.04944 and 0.05279 | 98.4664% and 102.604% | 0.04706 and 0.04925 and 0.04684 | 100.17% and 98.4213% and 96.1018% | 0.001091 and 8.088e-5 and -1.437e-5 | 2.42% and 0.1757% | 2.4% and 0.2% and -0.3% | 97.6% and 99.8% and 100.3% | -0.315 | inhibition at 25 µM (PfTrxR): 4.13%; inhibition at 50 µM (PfTrxR): 10.8%; % Activity (ID list), D0 (TGR): 98.5% and 102.6% and 100.0%; % Activity (ID list), D60 (TGR): 100.2% and 98.4% and 96.1% |
| C[C@@H]1[C@H]2C[C@@H](C[C@H]1NCc1nc3ccccc3n1C1CCCCCC1)C2(C)C [Compound 8] | 93.8 | 88.6 | 69.7 |  | 44.6 | 83.5 | 66 | 57.2 | >30^a µM | 9.2% and 6.6% and 7.5% | 6.1% and 9.1% and 6.2% | 0.05404 and 0.05709 and 0.05725 | 90.8083% and 93.3911% and 92.5327% | 0.05102 and 0.05246 and 0.05311 | 93.9422% and 90.9343% and 93.8339% | 0.005946 and 0.01664 and 0.01823 | 12.3643% and 34.0704% and 37.3107% |  | 77.7% and 75.9% and 68.7% | -0.482 | viability at 24 h, 1 µM ([1]; Conc. 1 µM): 97%; viability at 24 h, 100 µM ([1]; Conc. 100 µM): 4.99%; inhibition at 25 µM (PfTrxR): -0.643%; inhibition at 50 µM (PfTrxR): -0.523%; % Activity (ID list), D0 (TGR): 90.8% and 93.4% and 92.5%; % Activity (ID list), D60 (TGR): 93.9% and 90.9% and 93.8% |
